Source: PubChem BioAssay AID248 (DTP/NCI, 2004)
Several values for one entry are separate records, joined by “and”; a condition that tells them apart may be missing. Equal values may be shown once. Toxic doses and inconclusive results are not listed. Cut-off read from the data, not from the text of the source: active = T/C of 150% or more; inactive = T/C below 125%.

Tested on: L1210 leukemia ip in BDF1 mice, survival T/C
Experiment: NCI In Vivo Anticancer Drug Screen. Data for tumor model L1210 Leukemia (intraperitoneal) in B6D2F1 (BDF1) mice
Details: endpoint: mean survival time, higher = longer survival
Outline: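 Transplantable tumor model; survival measured in treated vs vehicle control mice. Value = treated/control.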

[1] = dose: 100.0 mg/kg/injection, schedule: Q04DX002 (ip), vehicle: Klucel (hydroxypropylcellulose) (HPC)
[2] = dose: 200.0 mg/kg/injection, schedule: Q04DX002 (ip), vehicle: Klucel (hydroxypropylcellulose) (HPC)
[3] = dose: 400.0 mg/kg/injection, schedule: Q04DX002 (ip), vehicle: Klucel (hydroxypropylcellulose) (HPC)
[4] = dose: 100.0 mg/kg/injection, schedule: Q01DX001 (ip), vehicle: saline
[5] = dose: 200.0 mg/kg/injection, schedule: Q01DX001 (ip), vehicle: saline
[6] = dose: 400.0 mg/kg/injection, schedule: Q01DX001 (ip), vehicle: saline
[7] = dose: 100.0 mg/kg/injection, schedule: Q04DX003 (ip), vehicle: Klucel (hydroxypropylcellulose) (HPC)
[8] = dose: 200.0 mg/kg/injection, schedule: Q04DX003 (ip), vehicle: Klucel (hydroxypropylcellulose) (HPC)
[9] = dose: 400.0 mg/kg/injection, schedule: Q04DX003 (ip), vehicle: Klucel (hydroxypropylcellulose) (HPC)
[10] = dose: 100.0 mg/kg/injection, schedule: Q01DX009 (ip), vehicle: Klucel (hydroxypropylcellulose) (HPC)
[11] = dose: 200.0 mg/kg/injection, schedule: Q01DX009 (ip), vehicle: Klucel (hydroxypropylcellulose) (HPC)
[12] = dose: 75.0 mg/kg/injection, schedule: Q01DX001 (ip), vehicle: saline
[13] = dose: 75.0 mg/kg/injection, schedule: Q04DX003 (ip), vehicle: saline

Measured: T/C

Cc1ccc(Cl)cc1NC(=O)CCc1ccccc1
inactive: [1] 91 % of control | [2] 94 % of control | [3] 91 % of control

NC(CS)C(=O)O (stereo not given) (tested in a mixture with another compound)
inactive: [4] 108 % of control | [5] 92 % of control | [6] 89 % of control

NC(=S)N/N=C/c1cc2c(cc1Br)OCO2
inactive: dose: 50.0 mg/kg/injection, schedule: Q01DX001 (ip), vehicle: alcohol 93 % of control | dose: 100.0 mg/kg/injection, schedule: Q01DX001 (ip), vehicle: alcohol 122 % of control | dose: 200.0 mg/kg/injection, schedule: Q01DX001 (ip), vehicle: alcohol 112 % of control | dose: 400.0 mg/kg/injection, schedule: Q01DX001 (ip), vehicle: alcohol 104 % of control

COc1ccc(OCCOC(=O)Nc2ccccc2C(F)(F)F)cc1
inactive: [7] 105 % of control | [8] 90 % of control | [9] 90 % of control

CC(C)(CBr)C(=O)O
inactive: [4] 95 % of control | [5] 95 % of control | [6] 100 % of control

O=[N+]([O-])/C=C/c1ccc2ccccc2c1
inactive: dose: 12.5 mg/kg/injection, schedule: Q01DX009 (ip), vehicle: carboxymethylcellulose (CMC) 104 % of control | dose: 25.0 mg/kg/injection, schedule: Q01DX009 (ip), vehicle: carboxymethylcellulose (CMC) 101 % of control | dose: 50.0 mg/kg/injection, schedule: Q01DX009 (ip), vehicle: Klucel (hydroxypropylcellulose) (HPC) 107 % of control | dose: 50.0 mg/kg/injection, schedule: Q01DX009 (ip), vehicle: carboxymethylcellulose (CMC) 100 % of control | dose: 100.0 mg/kg/injection, schedule: Q01DX001 (ip), vehicle: other 100 % of control | [10] 104 % of control | dose: 100.0 mg/kg/injection, schedule: Q01DX009 (ip), vehicle: carboxymethylcellulose (CMC) 101 % of control | dose: 200.0 mg/kg/injection, schedule: Q01DX001 (ip), vehicle: other 91 % of control | [11] 93 % of control | dose: 400.0 mg/kg/injection, schedule: Q01DX001 (ip), vehicle: other 96 % of control

O=C(c1ccc(C(=O)N2CC2)cc1)N1CC1
inactive: dose: 5.0 mg/kg/injection, schedule: Q04DX003 (ip), vehicle: carboxymethylcellulose (CMC) 106 % of control | dose: 10.0 mg/kg/injection, schedule: Q04DX003 (ip), vehicle: carboxymethylcellulose (CMC) 97 % of control | dose: 20.0 mg/kg/injection, schedule: Q01DX001 (ip), vehicle: carboxymethylcellulose (CMC) 103 % of control | dose: 20.0 mg/kg/injection, schedule: Q04DX003 (ip), vehicle: carboxymethylcellulose (CMC) 94 % of control

Cc1ccc(C)c(NC(=O)Nc2ccccc2C)c1
inactive: [10] 88 % of control | [7] 86 % of control | [11] 101 % of control and 90 % of control | [8] 89 % of control | [9] 89 % of control

CC(C)CCC(CCC(C)C)NCC(C)OC(=O)c1ccc(N)cc1 (stereo not given)
inactive: dose: 75.0 mg/kg/injection, schedule: Q01DX001 (ip), vehicle: carboxymethylcellulose (CMC) 93 % of control | dose: 150.0 mg/kg/injection, schedule: Q01DX001 (ip), vehicle: carboxymethylcellulose (CMC) 89 % of control

CCN(C(=O)c1cc(OC)c(OC)c(OC)c1)C1CCCCC1
inactive: dose: 100.0 mg/kg/injection, schedule: Q04DX003 (ip), vehicle: saline with Tween-80 101 % of control | dose: 200.0 mg/kg/injection, schedule: Q04DX003 (ip), vehicle: saline with Tween-80 107 % of control | dose: 400.0 mg/kg/injection, schedule: Q04DX003 (ip), vehicle: saline with Tween-80 96 % of control

NC(=S)N/N=C(\c1ccc(Br)cc1)C1CC1
inactive: dose: 2.0 mg/kg/injection, schedule: Q01DX Z (ip), vehicle: carboxymethylcellulose (CMC) 105 % of control | dose: 4.0 mg/kg/injection, schedule: Q01DX Z (ip), vehicle: carboxymethylcellulose (CMC) 102 % of control | dose: 4.0 mg/kg/injection, schedule: Q01DX Z (oral), vehicle: carboxymethylcellulose (CMC) 115 % of control | dose: 8.0 mg/kg/injection, schedule: Q01DX Z (ip), vehicle: carboxymethylcellulose (CMC) 113 % of control | dose: 8.0 mg/kg/injection, schedule: Q01DX Z (oral), vehicle: carboxymethylcellulose (CMC) 115 % of control | dose: 16.0 mg/kg/injection, schedule: Q01DX Z (oral), vehicle: carboxymethylcellulose (CMC) 107 % of control

CC(Br)C(Br)CO (stereo not given)
inactive: dose: 100.0 mg/kg/injection, schedule: Q01DX009 (ip), vehicle: saline 103 % of control | dose: 200.0 mg/kg/injection, schedule: Q01DX009 (ip), vehicle: saline 102 % of control | dose: 400.0 mg/kg/injection, schedule: Q01DX009 (ip), vehicle: saline 100 % of control

CS(=O)(=O)N(CC(=O)O)Cc1cccc(Cl)c1
inactive: dose: 100.0 mg/kg/injection, schedule: Q01DX009 (ip), vehicle: other 100 % of control | dose: 100.0 mg/kg/injection, schedule: Q04DX003 (ip), vehicle: other 100 % of control | dose: 200.0 mg/kg/injection, schedule: Q01DX009 (ip), vehicle: other 101 % of control | dose: 200.0 mg/kg/injection, schedule: Q04DX003 (ip), vehicle: other 102 % of control | dose: 400.0 mg/kg/injection, schedule: Q01DX009 (ip), vehicle: other 97 % of control | dose: 400.0 mg/kg/injection, schedule: Q04DX003 (ip), vehicle: other 103 % of control

ClCC/C=C\C=C\CCCl
inactive: [12] 93 % of control | [13] 107 % of control | dose: 150.0 mg/kg/injection, schedule: Q01DX001 (ip), vehicle: saline 105 % of control | dose: 150.0 mg/kg/injection, schedule: Q04DX003 (ip), vehicle: saline 111 % of control | dose: 300.0 mg/kg/injection, schedule: Q01DX001 (ip), vehicle: saline 93 % of control | dose: 300.0 mg/kg/injection, schedule: Q04DX003 (ip), vehicle: saline 107 % of control

O=C(N=C1C=CC(=NC(=O)OCc2ccccc2)C=C1)OCc1ccccc1
inactive: [10] 98 % of control | [7] 92 % of control | [11] 100 % of control | [8] 88 % of control | dose: 400.0 mg/kg/injection, schedule: Q01DX009 (ip), vehicle: Klucel (hydroxypropylcellulose) (HPC) 100 % of control | [9] 90 % of control

CCOC(=O)CCc1cc2cc(C)nnc2[nH]1
inactive: [1] 95 % of control | [2] 91 % of control | [3] 106 % of control

Cc1nc(N=C(N)N)nc2ccc(Cl)cc12
inactive: dose: 18.8 mg/kg/injection, schedule: Q04DX003 (ip), vehicle: saline 96 % of control | dose: 37.5 mg/kg/injection, schedule: Q04DX003 (ip), vehicle: saline 105 % of control | [12] 101 % of control | [13] 100 % of control

O/N=C/c1nc2ccccc2[nH]1
inactive: dose: 75.0 mg/kg/injection, schedule: Q01DX001 (ip), vehicle: other 90 % of control | dose: 150.0 mg/kg/injection, schedule: Q01DX001 (ip), vehicle: other 90 % of control | dose: 300.0 mg/kg/injection, schedule: Q01DX001 (ip), vehicle: other 95 % of control

c1ccc(-c2c3ccccc3c(-c3ccccc3)c3c(-c4ccccc4)c4ccccc4c(-c4ccccc4)c23)cc1
inactive: [1] 95 % of control | [2] 98 % of control | [3] 109 % of control
